US9670261B2 (Sanofi, priority 2012, dated 2017)
*1 amine or outer side, *2 acyl side, *3 side chain or, on linkers, in order; H or OH if unused. Where a SMILES comes first, the peptide text is derived from it. Side-chain parts run from the residue outwards. [ ]: non-standard residue; d: D form. The star is where a group is joined. γGlu = O=C(O)[C@H](CCC(=O)[*:2])N[*:1]; Stearoyl = CCCCCCCCCCCCCCCCCC(=O)*; Palmitoyl = CCCCCCCCCCCCCCCC(=O)*; Aib = CC(C)(N)C(=O)O

How the values were obtained:
[1] = Pharmacokinetic testing in mice, s.c.; conditions: mouse, plasma, sc, 1 mg/kg
Description: Mice were dosed 1 mg/kg subcutaneously (s.c.). The mice were sacrified and blood samples were collected after 0.25, 0.5, 1, 2, 4, 8, 16 and 24 hours post application. Plasma samples were analyzed after protein precipitation via liquid chromatography mass spectrometry (LC/MS). PK parameters and half-life were calculated using WinonLin Version 5.2.1 (non-compartment model).

[2] = system: non-fasted female diabetic dbdb-mice; assay: Glucose lowering in non-fasted female diabetic dbdb-mice; format: in vivo; conditions: 3 μg/kg s.c., at 240 min; baseline 20-22 mmol/l
Source text: Female diabetic dbdb-mice of mean non-fasted glucose value of 20-22 mmol/l and a body weight of 42 g+/−0.6 g (SEM) were used. Mice were individually marked and were adapted to housing conditions for at least one week.
3-5 days prior to study start mice were assigned to groups and cages (4 mice per cage, 8 per group) according to their non-fasted glucose values to ensure even distribution of lower and higher values between groups (stratification). On the study day, mice were weighed and dosed (t=0). Immediately prior to compound administration feed was removed while water remained available, and a first blood sample at a tail incision was drawn (baseline). Further blood samples were drawn at the tail incision at 30, 60, 90, 120, 240, 360, and 480 min.
Statistical analyses are performed with Everstat Version 6.0 based on SAS by 2-way-ANOVA on repeated measures, followed by Dunnett's post-hoc test against vehicle-control. Differences are considered statistically significant at the p<0.05 level.
Female dbdb-mice, received 3 μg/kg of SEQ ID NO: 14, SEQ ID NO: 21 or phosphate buffered saline (vehicle control) subcutaneously, at time 0 min.

[3] = Solubility testing in buffer (HPLC-UV); conditions: buffer
human GLP-1 receptor = molecular target: T1, human GLP-1 receptor (Homo sapiens, UniProt P43220); assay: cAMP response (HTRF) of HEK-293 cells stably expressing human GLP-1 receptor; format: cell-based; conditions: Table 7; cAMP formation; read-out: EC50 hGLP-1 R
T1 construct: expressed in transfected cells
T1 sequence (P43220 24-463): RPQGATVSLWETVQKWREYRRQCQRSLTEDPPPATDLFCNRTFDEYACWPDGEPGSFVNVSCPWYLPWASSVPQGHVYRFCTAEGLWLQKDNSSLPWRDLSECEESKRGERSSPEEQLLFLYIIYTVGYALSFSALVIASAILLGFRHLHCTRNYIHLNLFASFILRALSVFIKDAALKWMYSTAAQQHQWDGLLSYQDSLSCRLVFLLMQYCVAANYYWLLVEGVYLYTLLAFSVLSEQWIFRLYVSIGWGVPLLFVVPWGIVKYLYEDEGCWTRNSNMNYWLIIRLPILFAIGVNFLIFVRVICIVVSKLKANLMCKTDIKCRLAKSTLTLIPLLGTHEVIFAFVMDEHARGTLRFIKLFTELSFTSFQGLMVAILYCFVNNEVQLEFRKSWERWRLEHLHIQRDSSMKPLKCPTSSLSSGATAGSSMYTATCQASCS
Summary of the method: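 Stably transfected HEK-293 cells, accutase-harvested; assay buffer 1×HBSS/20 mM HEPES/0.1% BSA/2 mM IBMX; 400000 cells/ml; compound 30 min, RT; cAMP by HTRF kit.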

[4] = Chemical stability in solution, 7 days at 25° C. (% remaining peptide); conditions: % remaining peptide after 7 days at 25° C.
Description: After that time course, the sample was centrifuged for 20 min at 4000 rpm and the supernatant was analysed with HPLC-UV. For determination of the amount of the remaining peptide, the peak areas of the target compound at t0 and t7 were compared, resulting in “% remaining peptide”, following the equation % remaining peptide=[(peak area peptide t7)×100]/peak area peptide t0.
The chemical stability is expressed as “% remaining peptide”.

[5] = system: female diabetic dbdb-mice; assay: Glucose, HbA1c and oral glucose tolerance in diabetic dbdb-mice, chronic treatment (method 4); format: in vivo
Description: 8 week old, female diabetic dbdb-mice of mean non-fasted glucose value of 14.5 mmol/l and a body weight of 37-40 g were used. Mice were individually marked and were adapted to housing conditions for at least one week.
7 days prior to study start, baseline values for non-fasted glucose and HbA1c were determined, 5 days prior to study start, mice were assigned to groups and cages (5 mice per cage, 10 per group) according to their HbA1c values to ensure even distribution of lower and higher values between groups (stratification).
Mice were treated for 4 weeks, by once daily subcutaneous administration 3 hours prior to the dark phase (6 pm to 6 am). Blood samples from a tail tip incision were obtained for HbA1c on study day 21 and oral glucose tolerance was assessed in the 4th week. Oral glucose tolerance test was done in the morning without prior extra compound administration to majorly assess the effect of chronic treatment and less of acute compound administration. Mice were fasted for 4 hours prior to oral glucose administration (2 g/kg, t=0 min). Blood samples were drawn prior to glucose administration and at 15, 30, 60, 90, 120, and 180 min thereafter. Feed was returned after the last blood sampling. Results are represented as change from baseline, glucose in mmol/l and HbA1c in %.
Statistical analyses are performed with Everstat Version 6.0 based on SAS by 1-way-ANOVA, followed by Dunnett's post-hoc test against vehicle-control. Differences are considered statistically significant at the p<0.05 level.
Female dbdb-mice, received 3 and 10 μg/kg of SEQ ID NO: 16 and 10 μg/kg of SEQ ID NO: 21 or phosphate buffered saline (vehicle control) once daily, subcutaneously over four weeks.

[6] = Pharmacokinetic testing in Göttinger minipigs, s.c.; format: in vivo; conditions: female, minipig, plasma, sc, Mini pigs, 0.1 mg/kg s.c.
Description: Female Göttinger minipigs were dosed 0.1 mg/kg subcutaneously (s.c.). Blood samples were collected after 0.25, 0.5, 1, 2, 4, 8, 24, 32, 48, 56 and 72 hours post application. Plasma samples were analyzed after protein precipitation via liquid chromatography mass spectrometry (LC/MS). PK parameters and half-life were calculated using WinonLin Version 5.2.1 (non-compartment model).

human GIP receptor = molecular target: T2, human GIP receptor (Homo sapiens, UniProt P48546); assay: cAMP response (HTRF) of HEK-293 cells stably expressing human GIP receptor; format: cell-based; conditions: Table 7; cAMP formation; read-out: EC50 hGIP R
T2 construct: expressed in transfected cells
T2 sequence (P48546 22-466): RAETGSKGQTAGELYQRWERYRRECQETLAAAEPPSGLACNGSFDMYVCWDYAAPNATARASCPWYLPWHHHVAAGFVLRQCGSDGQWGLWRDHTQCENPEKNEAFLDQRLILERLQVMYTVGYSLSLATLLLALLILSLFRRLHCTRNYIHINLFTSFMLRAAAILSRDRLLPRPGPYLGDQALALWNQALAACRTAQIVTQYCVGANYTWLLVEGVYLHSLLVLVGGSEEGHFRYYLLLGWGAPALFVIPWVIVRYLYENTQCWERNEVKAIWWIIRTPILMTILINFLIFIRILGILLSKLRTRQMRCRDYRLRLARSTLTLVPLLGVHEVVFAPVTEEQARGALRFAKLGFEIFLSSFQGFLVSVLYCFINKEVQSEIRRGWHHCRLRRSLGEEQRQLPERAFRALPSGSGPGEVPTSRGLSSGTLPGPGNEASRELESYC
Description: cAMP content of cells was determined using a kit from Cisbio Corp. (cat. no. 62AM4PEC) based on HTRF (Homogenous Time Resolved Fluorescence). For preparation, cells were split into T175 culture flasks and grown overnight to near confluency in medium (DMEM/10% FBS). Medium was then removed and cells washed with PBS lacking calcium and magnesium, followed by proteinase treatment with accutase (Sigma-Aldrich cat. no. A6964). Detached cells were washed and resuspended in assay buffer (1×HBSS; 20 mM HEPES, 0.1% BSA, 2 mM IBMX) and cellular density determined. They were then diluted to 400000 cells/ml and 25 μl-aliquots dispensed into the wells of 96-well plates. For measurement, 25 μl of test compound in assay buffer was added to the wells, followed by incubation for 30 minutes at room temperature.

[7] = system: female diet-induced obese (DIO) C57BL/6NCrl mice; assay: Body weight in DIO mice, 14 weeks of prefeeding with high-fat diet (method 2); format: in vivo
Description: Female C57BL/6NCrl mice were housed in groups in a specific pathogen-free barrier facility on a 12 h light/dark cycle with free access to water and high-fat diet. After 14 weeks on high-fat diet, mice were stratified to treatment groups (n=8), so that each group had similar mean body weight.
An aged-matched group with ad libitum access to standard chow and water was included as standard control group.
Before the experiment, mice were subcutaneously (s.c.) injected with vehicle solution and weighed for 3 days to acclimate them to the procedures.
Body weight was recorded daily.
Statistical analyses were performed with Everstat 6.0 by repeated measures two-way ANOVA and Dunnett's post-hoc analyses (glucose profile) and 1-way-ANOVA, followed by Dunnett's post-hoc test (body weight, body fat). Differences versus vehicle-treated DIO control mice were considered statistically significant at the p<0.05 level.
Female obese C57BL/6NCrl mice were treated for 3 weeks once daily subcutaneously in the late afternoon, prior the end of the light phase (12 h lights on) with 10 μg/kg SEQ ID NO: 9 and SEQ ID NO: 21 or vehicle. Body weight was recorded daily.

human glucagon receptor = molecular target: T3, human glucagon receptor (Homo sapiens, UniProt P47871); assay: cAMP response (HTRF) of HEK-293 cells stably expressing human glucagon receptor; format: cell-based; conditions: Table 7; cAMP formation; read-out: EC50 hGLUC R
T3 construct: expressed in transfected cells
T3 sequence (P47871 26-477): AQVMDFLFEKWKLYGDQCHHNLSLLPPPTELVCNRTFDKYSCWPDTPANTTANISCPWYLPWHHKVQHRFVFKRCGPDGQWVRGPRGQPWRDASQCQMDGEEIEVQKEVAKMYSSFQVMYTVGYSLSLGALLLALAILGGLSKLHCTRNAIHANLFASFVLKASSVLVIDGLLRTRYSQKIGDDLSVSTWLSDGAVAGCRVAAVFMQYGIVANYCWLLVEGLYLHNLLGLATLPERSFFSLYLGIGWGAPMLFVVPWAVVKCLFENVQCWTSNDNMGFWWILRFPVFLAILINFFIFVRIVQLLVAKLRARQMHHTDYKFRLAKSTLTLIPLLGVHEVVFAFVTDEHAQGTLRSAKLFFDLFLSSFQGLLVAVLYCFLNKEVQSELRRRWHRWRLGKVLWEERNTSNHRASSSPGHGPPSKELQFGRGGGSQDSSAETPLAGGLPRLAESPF

| Compound | Cmax [1] [ng/mL] | half-life [1] [min] | maximal effect on glucose, change from baseline [2] [mmol/L] | solubility at 2 h ([3]; pH 4.5) [µg/mL] | solubility at 2 h ([3]; pH 7.4) [µg/mL] | EC50 (human GLP-1 receptor) [pM] | Stability (pH 4.5) ([4]; pH 4.5) [%] | Stability (pH 7.4) ([4]; pH 7.4) [%] | oral glucose tolerance ([5]; once daily s.c., oral glucose 2 g/kg in the 4th week) | reduction of AUC under the glucose curve compared to vehicle control ([5]; oral glucose tolerance test, p<0.05) | maximal effect, glucose reduction [2] [mmol/L] | Cmax [6] [ng/mL] | half-life [6] [min] | EC50 (human GIP receptor) [pM] | decrease of body weight, relative change from baseline ([7]; 10 μg/kg s.c. once daily, 3 weeks) [%] | Overall weight change ([7]; 10 μg/kg, 3-week treatment, mean ± SEM) [g] | EC50 (human glucagon receptor) [nM] |
| --- | --- | --- | --- | --- | --- | --- | --- | --- | --- | --- | --- | --- | --- | --- | --- | --- | --- |
| CCCCCCCCCCCCCCCCCC(=O)N[C@@H](CCC(=O)NCCCC[C@H](NC(=O)[C@H](CCC(N)=O)NC(=O)[C@@H](NC(=O)[C@H](CO)NC(=O)[C@H](CC(C)C)NC(=O)[C@H](CC(=O)O)NC(=O)[C@H](CO)NC(=O)[C@@H](NC(=O)[C@H](Cc1ccccc1)NC(=O)[C@@H](NC(=O)CNC(=O)[C@H](CCC(=O)O)NC(=O)C(C)(C)NC(=O)[C@@H](N)Cc1ccc(O)cc1)[C@@H](C)O)[C@@H](C)O)[C@@H](C)CC)C(=O)N[C@@H](CCC(=O)O)C(=O)N[C@@H](CCCCN)C(=O)N[C@@H](CCCNC(=N)N)C(=O)N[C@@H](C)C(=O)N[C@@H](C)C(=O)N[C@@H](CCC(N)=O)C(=O)N[C@@H](CCC(=O)O)C(=O)N[C@@H](Cc1ccccc1)C(=O)N[C@H](C(=O)N[C@@H](CCC(=O)O)C(=O)N[C@@H](Cc1c[nH]c2ccccc12)C(=O)N[C@@H](CC(C)C)C(=O)N[C@@H](CCCCN)C(=O)N[C@@H](C)C(=O)NCC(=O)NCC(=O)N1CCC[C@H]1C(=O)N[C@@H](CO)C(=O)N[C@@H](CO)C(=O)NCC(=O)N[C@@H](C)C(=O)N1CCC[C@H]1C(=O)N1CCC[C@H]1C(=O)N1CCC[C@H]1C(=O)N[C@@H](CO)C(N)=O)[C@@H](C)CC)C(=O)O [SEQ ID NO: 14, Y-Aib-E-G-T-F-T-S-D-L-S-I-Q-K(γE-x70)-EKRAAQEFIEWLKAGGPSSGAPPPS-NH2] (H-Y[Aib]EGTFTSDLSIQK([γGlu-Stearoyl])EKRAAQEFIEWLKAGGPSSGAPPPS-NH2) | 5340 | 168 | -8 | > 1000 | > 1000 | 4.3 | 96.0 | 94.0 | – | – | – | – | – | – | – | – | – |
| CCCCCCCCCCCCCCCCCC(=O)N[C@@H](CCC(=O)NCCCC[C@H](NC(=O)[C@H](CCC(N)=O)NC(=O)[C@@H](NC(=O)[C@H](CO)NC(=O)[C@H](CC(C)C)NC(=O)[C@H](CC(=O)O)NC(=O)[C@H](CO)NC(=O)[C@@H](NC(=O)[C@H](Cc1ccccc1)NC(=O)[C@@H](NC(=O)CNC(=O)[C@H](CCC(=O)O)NC(=O)C(C)(C)NC(=O)[C@@H](N)Cc1ccc(O)cc1)[C@@H](C)O)[C@@H](C)O)[C@@H](C)CC)C(=O)N[C@@H](CCC(=O)O)C(=O)N[C@@H](CO)C(=O)N[C@@H](CCCNC(=N)N)C(=O)N[C@@H](C)C(=O)N[C@@H](C)C(=O)N[C@@H](CCC(N)=O)C(=O)N[C@@H](CCC(=O)O)C(=O)N[C@@H](Cc1ccccc1)C(=O)N[C@H](C(=O)N[C@@H](CCC(=O)O)C(=O)N[C@@H](Cc1c[nH]c2ccccc12)C(=O)N[C@@H](CC(C)C)C(=O)N[C@@H](CCCCN)C(=O)N[C@@H](C)C(=O)NCC(=O)NCC(=O)N1CCC[C@H]1C(=O)N[C@@H](CO)C(=O)N[C@@H](CO)C(=O)NCC(=O)N[C@@H](C)C(=O)N1CCC[C@H]1C(=O)N1CCC[C@H]1C(=O)N1CCC[C@H]1C(=O)N[C@@H](CO)C(N)=O)[C@@H](C)CC)C(=O)O [SEQ ID NO: 21, Y-Aib-E-G-T-F-T-S-D-L-S-I-Q-K(γE-x70)-ESRAAQEFIEWLKAGGPSSGAPPPS-NH2] (H-Y[Aib]EGTFTSDLSIQK([γGlu-Stearoyl])ESRAAQEFIEWLKAGGPSSGAPPPS-NH2) | 5050 | 240 | – | – | – | – | – | – | improved oral glucose tolerance | reached statistical significance | 10 to 12 | 479 | 1150 | 6.4 | ≤ 18.0 | -7.3 ± 0.7 | – |
| CCCCCCCCCCCCCCCC(=O)N[C@@H](CCC(=O)NCCCC[C@H](NC(=O)[C@H](CCC(N)=O)NC(=O)[C@@H](NC(=O)[C@H](CO)NC(=O)[C@H](CC(C)C)NC(=O)[C@H](CC(=O)O)NC(=O)[C@H](CO)NC(=O)[C@@H](NC(=O)[C@H](Cc1ccccc1)NC(=O)[C@@H](NC(=O)CNC(=O)[C@H](CCC(=O)O)NC(=O)C(C)(C)NC(=O)[C@@H](N)Cc1ccc(O)cc1)[C@@H](C)O)[C@@H](C)O)[C@@H](C)CC)C(=O)N[C@@H](CC(=O)O)C(=O)N[C@@H](CO)C(=O)N[C@@H](CCCNC(=N)N)C(=O)N[C@@H](C)C(=O)N[C@@H](C)C(=O)N[C@@H](CCC(N)=O)C(=O)N[C@@H](CC(=O)O)C(=O)N[C@@H](Cc1ccccc1)C(=O)N[C@H](C(=O)N[C@@H](CCC(=O)O)C(=O)N[C@@H](Cc1c[nH]c2ccccc12)C(=O)N[C@@H](CC(C)C)C(=O)N[C@@H](CCCCN)C(=O)N[C@@H](C)C(=O)NCC(=O)NCC(=O)N1CCC[C@H]1C(=O)N[C@@H](CO)C(=O)N[C@@H](CO)C(=O)NCC(=O)N[C@@H](C)C(=O)N1CCC[C@H]1C(=O)N1CCC[C@H]1C(=O)N1CCC[C@H]1C(=O)N[C@@H](CO)C(N)=O)[C@@H](C)CC)C(=O)O [SEQ ID NO: 22, Y-Aib-E-G-T-F-T-S-D-L-S-I-Q-K(γE-x53)-DSRAAQDFIEWLKAGGPSSGAPPPS-NH2] (H-Y[Aib]EGTFTSDLSIQK([γGlu-Palmitoyl])DSRAAQDFIEWLKAGGPSSGAPPPS-NH2) | – | – | – | – | – | – | – | – | – | – | – | – | – | – | – | – | 11.6 |
